In series [1] the test system is Murine cultured B16 melanoma cells. Briefly: Melanin generation/formation suppression test based on cell culture (degree of whiteness). The arrangement: key: ++: distinctively stronger whiteness over the reference; +: apparently stronger whiteness over the reference; ±: slightly stronger whiteness over the reference; −: remained unchanged.
For series [2] the test system is unchanged. The series is described as follows: Cell survival rate test based on cell culture (crystal violet). The conditions noted are these: mouse, 5 days, 10 μg/mL. How it is done: (§1) Murine cultured B16 melanoma cells were used. An appropriate quantity of a 10% FBS-containing MEM medium was placed in two 6-well plates, the B16 melanoma cells were seeded therein and allowed to stand at 37° C. under a carbon dioxide concentration of 5 vol %. Next day, a sample preparation solution was added and mixed therewith so as to adjust the final concentrations of the Cistus ladaniferus L. extract obtained in Example 1, and labdenic acids and methyl esters and ethyl esters thereof obtained in Example 2 to 0 (reference), 5 and 10 μg/mL, and of lily extract (product of Maruzen Pharmaceuticals Co., Ltd.), which is a known whitening agent, to 0 and 100 μg/mL. The medium was exchanged on the fifth day of culture, and the sample preparation solution was added again. The medium was removed next day, the cells were collected from one plate after washing them using a phosphate buffer (pH7), and degree of whitening of the cultured B16 melanoma cells was evaluated according to the criteria shown below.
On the other plate, the cells were fixed with formalin, and dyed by adding an 1% crystal violet solution. Cell survival rates for the individual sample concentrations were measured using a monocellator (product of Olympus Corporation).
Murine cultured B16 melanoma cells were used. An appropriate quantity of a 10% FBS-containing MEM medium was placed in two 6-well plates, the B16 melanoma cells were seeded therein and allowed to stand at 37° C. under a carbon dioxide concentration of 5 vol %. […] The medium was removed next day, the cells were collected from one plate after washing them using a phosphate buffer (pH7), and degree of whitening of the cultured B16 melanoma cells was evaluated according to the criteria shown below.

The test system is the same in series [3]. Briefly: Melanin generation/formation suppression test based on cell culture (degree of whiteness). The arrangement: key: ++: distinctively stronger whiteness over the reference; +: apparently stronger whiteness over the reference; ±: slightly stronger whiteness over the reference; −: remained unchanged. How it is done:
as §1, with “below. […]” for “below.”
• ++: distinctively stronger whiteness over the reference; • +: apparently stronger whiteness over the reference; • ±: slightly stronger whiteness over the reference; and • −: remained unchanged.
as §1, with “Glycyrrhiza glabra” for “lily”
The source holds these as a separate data set.

In series [4] the test system is Human neonatal fibroblast NB1RGB. Briefly: Cell activation test based on cell culture (cell proliferation ratio). As for the experimental part: Human neonatal fibroblast NB1RGB was used. An appropriate quantity of medium was placed in a 24-well plate, the fibroblast NB1RGB was seeded therein and allowed to stand at 37 ° C. under a carbon dioxide concentration of 5 vol %. Next day, a sample preparation solution was added and mixed therewith so as to adjust the final concentrations of the Cistus ladaniferus L. extract obtained in Example 1, and labdenic acids and methyl esters and ethyl esters thereof obtained in Example 2 to 0 (reference), 5 and 10 μg/mL, and of Panax ginseng extract (product of Maruzen Pharmaceuticals Co., Ltd.), which is a known cell activator, to 0 and 100 μg/mL. The medium was exchanged on the fourth day of culture, and the sample preparation solution was added again. The medium was removed next day, the cells were washed using a phosphate buffer and collected, and evaluated in terms of cell proliferation rate based on comparison of the number of fibroblast NB1RGB cells grown in the individual sample preparation solutions with that of the reference. […]
The number of cells grown in each sample preparation solution was compared with the number of cells of the reference, and cell activation effect was evaluated using cell proliferation ratio as an index. The number of cells was counted using a blood cell counter plate.
Human neonatal fibroblast NB1RGB was used. An appropriate quantity of medium was placed in a 24-well plate, the fibroblast NB1RGB was seeded therein and allowed to stand at 37 ° C. under a carbon dioxide concentration of 5 vol %. Next day, a sample preparation solution was added and mixed therewith so as to adjust the final concentrations of the Cistus ladaniferus L. extract obtained in Example 1, and labdenic acids and methyl esters and ethyl esters thereof obtained in Example 2 to 0 (reference), 5 and 10 μg/mL, and of cactus extract, which is a known cell activator, to 0 and 100 μg/mL. The medium was exchanged on the fourth day of culture, and the sample preparation solution was added again. The medium was removed next day, the cells were washed using a phosphate buffer and collected, and evaluated in terms of cell proliferation rate based on comparison of the number of fibroblast NB1RGB cells grown in the individual sample preparation solutions with that of the reference.

Where [5] appears, read: final concentration 5 μg/mL + Glycyrrhiza glabra extract 100 μg/mL.
Setting [6] is: final concentration 10 μg/mL, Glycyrrhiza glabra extract 0 μg/mL.
The mark [7] stands for this setting: final concentration 5 μg/mL + lily extract 100 μg/mL.
The mark [8] stands for this setting: final concentration 10 μg/mL, lily extract 0 μg/mL.
Where [9] appears, read: final concentration 5 μg/mL + Panax ginseng extract 100 μg/mL.
Where [10] appears, read: final concentration 5 μg/mL, additional concentration of cactus extract 100 μg/mL, vs reference.
The mark [11] stands for this setting: final concentration 10 μg/mL, Panax ginseng extract 0 μg/mL.
Where [12] appears, read: final concentration 10 μg/mL, cactus extract 0 μg/mL, vs reference.

For the molecule `C=C1CCC2C(C)(C)CCCC2(C)C1CCC(C)CC(=O)O` (stereo not drawn) [Compound 7, labd-8(17)-en-15-oic acid], the Degree of whiteness result in series [1] (setting [5]) is “++”; in series [1] (setting [6]), “+”; in series [3] (setting [7]), “++”; in series [3] (setting [8]) it was “+”. For the same molecule, in series [2], the Cell survival rate was determined as 98%. Besides, the Cell-activation rate in series [4] (setting [9]) stood at 333%; in series [4] (setting [10]) it was 170%; in series [4] (setting [11]) it was 135%; in series [4] (setting [12]), 135%.

On to `CC1=C(CCC(C)CC(=O)O)C2(C)CCCC(C)(C)C2CC1` (stereo not drawn) [Compound 1, labd-8-en-15-oic acid], for which the Degree of whiteness entry is “++” in series [1] (setting [5]), “+” in series [1] (setting [6]), “++” in series [3] (setting [7]) and “+” in series [3] (setting [8]). The molecule also came in with a Cell survival rate in series [2] of 94%. In addition, the Cell-activation rate in series [4] (setting [9]) came to 329%; in series [4] (setting [10]), 310%; in series [4] (setting [11]) it was 128%; in series [4] (setting [12]), 128%.

On to `CC1=CCC2C(C)(C)CCCC2(C)C1CCC(C)CC(=O)O` (stereo not drawn) [Compound 4, labd-7-en-15-oic acid], for which the Degree of whiteness result in series [1] (setting [5]) is given as “++”; in series [1] (setting [6]), “+”; in series [3] (setting [7]) it was “++”; in series [3] (setting [8]), “+”. The Cell survival rate in series [2] was 93%. Further, the Cell-activation rate is 322% in series [4] (setting [9]), 315% in series [4] (setting [10]), 130% in series [4] (setting [11]) and 130% in series [4] (setting [12]).

These data come from patent publication US20060147397A1, “Composition for preparation for external use on skin and method of using the same” (Kose Corporation, priority 2002, published 2006).
